Common to all, as to settings: Homo sapiens
Experiment [1] deals with CCRF-CEM. The experiment in a line: Compound was tested for anti-HIV activity in TK-deficient CEM cells by inhibition of reverse transcriptase activity. It counts as functional, cell-based.
The test system of experiment [2] is CCRF-CEM. The experiment is described as follows: Compound was tested for anti-HIV activity in TK-deficient CEM cells by microculture tetrazolium assay. Format: functional, cell-based.
For experiment [3], the system named is CCRF-CEM. The experiment is described as follows: Compound was tested for anti-HIV activity in TK-deficient CEM cells by p24 production assay. It counts as functional, cell-based.
A short description of experiment [4]: Compound was tested for anti-HIV activity in normal peripheral blood mononuclear cells by inhibition of reverse transcriptase activity. It counts as functional.
Experiment [5] in a line: Compound was tested for anti-HIV activity in normal peripheral blood mononuclear cells by microculture tetrazolium assay. It counts as functional.
Experiment [6] is described as follows: Compound was tested for anti-HIV activity in normal peripheral blood mononuclear cells by p24 production assay. Format: functional.
Experiment [7] in a line: Compound was tested for anti-HIV activity in normal peripheral blood mononuclear cells infected with HIV-1(RTMDR-1) virus by inhibition of reverse transcriptase activity. It counts as functional.
Experiment [8] can be described thus: Compound was tested for anti-HIV activity in normal peripheral blood mononuclear cells infected with HIV-2 virus by inhibition of reverse transcriptase activity. Format: functional.

Data on six compounds can be found in ChEMBL document CHEMBL1131269, “Enhancing effects of a mono-bromo substitution at the para position of the phenyl moiety on the metabolism and anti-HIV activity of d4T-phenyl methoxyalaninyl phosphate derivatives” (Bioorg Med Chem Lett, 1998).

What is called IC50 is the concentration at which inhibition is half-maximal. Read a low IC50 as greater potency.

Molecules are shown by their SMILES.

With `COC(=O)C(C)NP(=O)(OC[C@@H]1C=C[C@H](n2cc(C)c(=O)[nH]c2=O)O1)Oc1ccc(Br)cc1` (some centres not stated) [STAMPIDINE], the IC50 in the experiment on CCRF-CEM [1] is 60 nM; with CCRF-CEM [2], more than 10000 nM; with CCRF-CEM [3] it was 40 nM; in experiment [4] it was 40 nM; in experiment [5], more than 10000 nM; in experiment [6] it was 20 nM. Further, the concentration for half-maximal inhibition (IC50) in experiment [7] was determined as 20 nM; in experiment [8], 400 nM.
Turning to `Cc1cn([C@H]2C=C[C@@H](CO)O2)c(=O)[nH]c1=O` [STAVUDINE], the half-maximal inhibitory concentration (IC50) in the experiment with CCRF-CEM [1] was 2400 nM; in the experiment with CCRF-CEM [2], more than 10000 nM; in the experiment on CCRF-CEM [3], 600 nM; in experiment [4], 40 nM; in experiment [5] it was more than 10000 nM; in experiment [6] it was 20 nM.
As to `Cc1cn([C@H]2C[C@H](N=[N+]=[N-])[C@@H](CO)O2)c(=O)[nH]c1=O` (single isomer, unassigned) [ZIDOVUDINE], the values for the IC50 in experiment [7] and in experiment [8] were 2000 nM and 2400 nM, respectively.
On to `COC(=O)C(C)NP(=O)(OC[C@@H]1C=C[C@H](n2cc(C)c(=O)[nH]c2=O)O1)Oc1ccccc1` (some centres not stated), for which the IC50 with CCRF-CEM [1] is 100 nM; in the experiment on CCRF-CEM [2], more than 10000 nM; in the experiment with CCRF-CEM [3], 100 nM; in experiment [5], more than 10000 nM.
As for `COC(=O)C(C)NP(=O)(OC[C@@H]1C=C[C@H](n2cc(C)c(=O)[nH]c2=O)O1)Oc1ccc(OC)cc1` (some centres not stated), the IC50 was 300 nM with CCRF-CEM [1]; more than 10000 nM in the experiment on CCRF-CEM [2]; 100 nM with CCRF-CEM [3]; 30 nM in experiment [4]; more than 10000 nM in experiment [5]; 30 nM in experiment [6].
With `COC(=O)C(C)NP(=O)(OC[C@H]1O[C@@H](n2cc(C)c(=O)[nH]c2=O)C[C@@H]1N=[N+]=[N-])Oc1ccc(Br)cc1` (some centres not stated), the half-maximal inhibitory concentration (IC50) in the experiment with CCRF-CEM [1] was 40 nM; with CCRF-CEM [2] it was more than 10000 nM; in experiment [4], 4 nM; in experiment [5], more than 10000 nM; in experiment [7] it was 1500 nM; in experiment [8] it was 3900 nM.
